The test system of test [1] is leukotriene C4 -induced contraction of guinea pig peripheral strips. Nature of the test: SRS-A antagonists (SALTI): leukotriene C4-induced contraction of guinea pig peripheral lung strips. As to conditions: Cavia porcellus; 0.2 μM leukotriene C4-induced contraction; read-out: SALTI, I50 μM. The procedure: Protocol for SRS-A (Slow-reacting Substance of Anaphylaxis Antagonists (SALTI)
Peripheral strips of guinea pig lungs are prepared and hung in tissue baths (Metro #ME-5505, 10 ml) according to the published procedure (Pro. Nat'l. Acad. Sci., U.S.A. Volume 77, pp. 4354-4358, 1980). The strips are thoroughly rinsed in Assay Buffer and then connected with surgical silk thread to the support rods from the tissue baths. The rods are adjusted in the baths and the strips connected to the pressure transducers (Grass FT 103 or Gould UC-3). The tissue baths are aerated with 95% oxygen 5% carbon dioxide and maintained at 37° C. The Assay Buffer has been made as follows: For each liter of buffer the following are added to approximately 800 ml of water distilled in glass--6.87 g. NaCl, 0.4 g. KCl, […]. NaHCO3, 0.14 g. NaH2 PO4.H2 O, 0.21 g. MgSO4.7H2 O, and 2.0 g. D-glucose. Then a solution of 0.368 g. CaCl2.2H2 O in 100 ml glass-distilled water is slowly added to the buffer. Sufficient water is added to adjust the volume to one liter, and the solution is aerated with 95% oxygen--5% carbon dioxide. Usually 10 liters of buffer are used for an experiment with 4 tissues.
After the tissues have been repeatedly washed and allowed to equilibrate in the tissue bath, they are challenged with 1 μM histamine. After maximum contractions have been obtained, the tissues are washed, and allowed to relax back to baseline tension. This histamine challenge procedure is repeated at least 1 to 2 more times to obtain a repeatable control response. The average response to 1 μM histamine for each tissue is used to normalize all other challenges.
Responses of each tissue to a predetermined concentration of leukotriene are then obtained. Usually test compounds are examined initially at 30 μM on resting tension of the tissues without any added agonist or antagonist to determine if the compound has any possible intrinsic activity. The tissues are washed, and the test compound is added again. Leukotriene is added after the desired pre-incubation time. The intrinsic activity of the compounds, and their effect on leukotriene-induced contractions are then recorded.
The concentration required for 50% inhibition of 0.2 μM leukotriene C4 -induced contraction of guinea pig peripheral strips for representative compounds of the present invention is shown in Table 3.

The target in a further test is T1, Phospholipase A2 (PLA2) (Rattus norvegicus, UniProt P14423).
T1 construct: obtained by aggregation of purified rat platelets; from tissue; host or cells: rat platelets (enzyme obtained by aggregation)
T1 sequence (P14423 22-146): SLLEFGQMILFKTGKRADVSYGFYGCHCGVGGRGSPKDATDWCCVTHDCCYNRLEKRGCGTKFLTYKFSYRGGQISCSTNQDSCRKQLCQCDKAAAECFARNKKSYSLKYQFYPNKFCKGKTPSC
Nature of the test: In vitro assay for inhibitors of Phospholipase A2 (PLA2) from rat platelets. As to conditions: pH 7.2, 37° C.; read-out: PLA2, I50. The class given is biochemical. From the text: B. In Vitro Assay For Inhibitors of Phospholipase A2 Assayed at pH 7.0 (PLA2)
The PLA2 employed in this screen is obtained by aggregation of purified rat platelets. In the enzyme assay phosphatidylcholine having ^14 C-labeled palmitate residues at R1 and R2 is employed as substrate. PLA2 acts by cleaving the R2 fatty acid ester bond yielding free fatty acid and lysophosphatidyl choline as follows: [drawing 19]
Following completion of the reaction, the assay medium is acidified and extracted with hexane, which takes up unreacted substrate and free fatty acid product. The hexane extract is passed over a short silica column which retains 99% of the phosphatidyl choline. The ^14 C-labeled palmitic acid is not retained (90% recovery in eluate) and is collected directly in scintillation counting vials. The released palmitic acid is conveniently quantitated by liquid scintillation spectrometry.
The compounds were tested at 100 uM in a buffer containing 0.3 mM unlabeled phosphatidylcholine (PC), 20-30,000 cpm of ^14 C(CPC), […], 1 mM CaCl2 and 50 mM tris-HCl adjusted to pH 7.2 with 1N NaOH. […] The temperature of the buffer was maintained at a temperature of 37° C. The reaction was initiated by addition of the enzyme and it was terminated 30 minutes later by the addition of […] of 1N HCl.
Following acidification, the samples were extracted with 2 ml of 2-propanol and 2 ml of hexane, vortexed and allowed to stand until the phases separated. Free fatty acids (FFA) and some unreacted substrate were taken up in the isopropanol-saturated hexane. The hexane phase of the extraction mixture was transferred to a short silica gel column which retained […] but not the FFA. The column effluent was collected directly in scintillation vials. The columns were washed once with an additional 2 ml of hexane. The radio labeled FFA were quantitated by liquid scintillation spectrometry.

A further test deals with cyclooxygenase. In words: Production of TXB2 and PGF2 α in rat peritoneal leukocyte homogenate (cyclooxygenase). As to conditions: read-out: Cyclox, I50. The class given is biochemical. From the text:
Another assay has been developed to test the ability of the invented compounds on the activity of cyclooxygenase, which is one of the enzymes metabolizing arachidonic acids. By-products of arachidonic acid metabolism include thromboxanes, a type of which is designated as TXB2, and protoglandins, a class of which is known as PGF2 α. As indicated, supra, these by-products promote inflammatory response to a host of offending stimuli. The following protocol describes a procedure for testing the inhibitory effect on the production of TXB2 and PGF2 α.
Protocol for Detecting the Production of TXB2 and PGF2 α.
A suspension of glycogen elicited rat peritoneal leukocyte-homogenate in buffer is incubated with (^14 C)-arachidonic acid (AA), epinephrine and glutathione for 30 minutes at 37°. The reaction is quenched with 2M citric acid, and a trace amount of (^3 H)-TXB2 and an excess of unlabeled TXB2 and PGF2 α are added to each tube. […] Strips containing the spots are cut out, placed in scintillation vials and the radioactive content is quantitated in a liquid scintillation spectrometer.
After adjusting for the extraction efficiency, the amount (pmole) of (^14 C)-TXB2 and PGF2 α in each of the tubes is calculated. […] The ability of the test compounds to modulate the activity of this enzyme is determined by a decrease or increase in the net amount of TXB2 and PGF2 α produced.

Our source for the IC50 values is patent US4758586A, “Indolyl compounds and hyposensitivity use thereof” (USV Pharmaceutical Corp., priority 1986, dated 1988).

With `CCC(=CC=Cc1cn(Cc2ccccc2)c2ccccc12)C(=O)O` [Example 9, 5-(1-Benzylindol-3-yl)-2-Ethyl-2,4-Pentadienoic Acid], the figures for the IC50 (in test [1]; on Phospholipase A2 (PLA2); on cyclooxygenase) were 18 µM, 47 µM and 15 µM, respectively.
